Article PMC9936582, “Sulfamate Acetamides as Self-Immolative Electrophiles for Covalent Ligand-Directed Release Chemistry” (Journal of the American Chemical Society, 2023)
“Also recorded” adds a separate entry of the source.

Columns and labels:
Buffer stability assay = assay type: physicochemical
Procedure: Reaction mixtures were kept at 37 °C with shaking. After 4 days (unless otherwise mentioned), 5 μL from the reaction mixture were injected into the LC/MS to check the stability of the compounds.

Pin1 = target: T1, Pin1 (Homo sapiens, UniProt Q13526); experiment: Intact protein MS labeling of Pin1; assay type: binding; conditions: 2 μM Pin1, 2 μM compound, pH 7.5, 1 h, 25 °C
T1 construct: The catalytic domain of Pin1 (2 μM) in […] and 75 mM NaCl (pH 7.5) was incubated; made in house
Procedure: Initially, we incubated these compounds (4a–4g; 2 μM) with Pin1 (2 μM; 50 mM Tris buffer; pH 7.5, 1 h; 25 °C) to check covalent labeling by intact protein MS (Figure 5B,C; Figure S23). Under these conditions, sulfopin labeled 59% as previously reported;[38] the sulfonate (4a) labeled 18%, whereas alkyl sulfamates (4b and 4c) labeled 16 and 56%, respectively. […] We have previously reported that replacing the tert-butyl group in sulfopin by a cyclohexyl increases the labeling along with intrinsic thiol reactivity. Compound 4g contains a cyclohexyl group instead of the tert-butyl and a phenyl sulfamate electrophile and was able to label >95% of Pin1 under these conditions.
Pin1 was expressed and purified as previously reported.[38] The catalytic domain of Pin1 (2 μM) in […] and 75 mM NaCl (pH 7.5) was incubated with 2 μM sulfopin sulfamate (4a–4g) for 1 h at 25 °C.
(§1) The reaction mixtures, at room temperature for various times, were injected into the LC/MS. For data analysis, the raw spectra were deconvoluted using a 20,000:40,000 Da (For Pin1, 10,000:30,000) window and 1 Da resolution. The labeling percentage for a compound was determined as the labeling of a specific compound (alone or together with other compounds) divided by the overall detected protein species.

BTK [1] = target: T2, BTK (Homo sapiens, UniProt Q06187); experiment: In vitro kinase activity assay (Nanosyn); conditions: for BTK inhibition (in words): 0.5 nM BTK, 5 μM ATP
Target sequence in this assay (Q06187 whole entry): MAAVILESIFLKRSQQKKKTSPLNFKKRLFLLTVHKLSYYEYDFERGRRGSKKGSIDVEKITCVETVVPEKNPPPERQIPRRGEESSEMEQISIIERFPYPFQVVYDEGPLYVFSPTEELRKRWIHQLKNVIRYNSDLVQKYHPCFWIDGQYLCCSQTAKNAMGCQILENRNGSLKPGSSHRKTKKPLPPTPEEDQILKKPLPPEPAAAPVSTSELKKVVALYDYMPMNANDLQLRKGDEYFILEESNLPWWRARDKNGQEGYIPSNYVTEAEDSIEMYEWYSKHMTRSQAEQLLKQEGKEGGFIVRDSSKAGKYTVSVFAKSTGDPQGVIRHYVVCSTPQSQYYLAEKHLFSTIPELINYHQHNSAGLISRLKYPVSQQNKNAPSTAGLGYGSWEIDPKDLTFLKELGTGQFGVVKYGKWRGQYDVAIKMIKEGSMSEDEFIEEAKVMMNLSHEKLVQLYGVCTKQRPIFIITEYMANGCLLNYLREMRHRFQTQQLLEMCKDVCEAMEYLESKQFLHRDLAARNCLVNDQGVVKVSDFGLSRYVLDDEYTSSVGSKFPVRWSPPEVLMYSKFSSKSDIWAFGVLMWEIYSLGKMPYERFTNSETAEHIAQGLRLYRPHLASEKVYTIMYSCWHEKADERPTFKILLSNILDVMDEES

BTK [2] = target: T2, BTK; experiment: BTK activity (autophosphorylation) in Mino cells, Western blot; assay type: cell-based; set-up: endogenous in cells; host or cells: Mino cells
Procedure: To assess the cellular efficacy of these compounds, we followed the inhibition of BTK autophosphorylation in Mino cells. After 1 h of pre-incubation with the inhibitors and B-cell activation with an anti-IgM antibody, BTK autophosphorylation was followed by Western blot.
The cell pellets were subjected to immunoblotting, and Western blots were performed for p-BTK, BTK, and β-actin.
Cell pellets were washed with ice-cold PBS and lysed using RIPA buffer (Sigma, R0278). […] Samples containing 50 μg total protein were prepared with 4× LDS sample buffer (NuPAGE, Thermo Scientific, NP0007) and 20 mM DTT, which were then resolved on a 4–20% Bis–Tris gel (GeneScript SurePAGE, M00657). […] An EZ-ECL Kit (Biological Industries, 20-500-1000) was used to detect HRP activity.
Target sequence in this assay (Q06187 whole entry): as above

BTK [3] = target: T2, BTK; experiment: Intact protein mass spectrometry labeling of recombinant BTK; assay type: binding; set-up: BTK kinase domain was expressed and purified as previously reported; made in house; conditions: 2 μM BTK, 2 μM compound, pH 8, 25 °C
Procedure: BTK kinase domain was expressed and purified as previously reported.[66] Binding experiments were performed in Tris 20 mM (pH 8.0) and 50 mM NaCl at room temperature.
as §1
Target sequence in this assay (Q06187 402-655 limits assumed): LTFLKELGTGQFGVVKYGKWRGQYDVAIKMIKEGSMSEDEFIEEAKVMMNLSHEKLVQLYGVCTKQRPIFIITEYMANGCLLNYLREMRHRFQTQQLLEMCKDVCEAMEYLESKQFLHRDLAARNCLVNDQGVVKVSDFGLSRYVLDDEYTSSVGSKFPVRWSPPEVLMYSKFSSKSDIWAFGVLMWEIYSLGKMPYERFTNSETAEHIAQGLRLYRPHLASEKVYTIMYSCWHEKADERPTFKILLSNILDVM

[4] = GSH consumption assay (LC/MS); conditions: for reactivity towards GSH relative to chloroacetamide (1a): 5 mM GSH, 200 μM electrophile, pH 8, 14 °C; for covalent bond formation with GSH: assay conditions or temperatures up to 37 °C for 24 h
Procedure: A sample from the reaction mixture was injected to an LC/MS every hour, and we quantified the decrease in starting material over the course of the reaction.
All solvents were bubbled with argon. Reaction mixtures were kept at 10 °C. Every 1 h, 5 μL from the reaction mixture were injected into the LC/MS. The reaction was followed by the peak area of the electrophile normalized by the area of the 4-nitrocyano benzene (i.e., by the disappearance of the starting material). The natural logarithm of the results was fitted to linear regression, and t1/2 was calculated as t1/2 = ln 2/–slope.

[5] = Glutamic acid reactivity of model compounds (LC/MS); conditions: pH 8, 37 °C; 4 days
[6] = DTNB thiol reactivity assay; assay type: physicochemical
Procedure: The compound 5,5′-dithio-bis(2-nitrobenzoic acid) (DTNB; 50 μM) was incubated with 200 μM tris(2-carboxyethyl)phosphine (TCEP) in 20 mM sodium phosphate buffer (pH 7.4) and 150 mM NaCl for 5 min at room temperature to obtain TNB^–2. […] UV absorbance was acquired every 15 min for 7 h. The assay was performed in a 384-well plate using a Tecan Spark 10 M plate reader. […] Compounds were measured in triplicate. The data were fitted to a second-order reaction equation such that the rate constant (K) is the slope of ln([A][B0]/[B][A0]), where [A0] and [B0] are the initial concentrations of the compound (200 μM) and TNB^–2 (100 μM), respectively, and [A] and [B] are the remaining concentrations as a function of time as deduced from spectrometric measurements. Linear regression using Prism was performed to fit the rate against the first 7 h of measurements.

[7] = Metabolic stability of sulfopin analogues in liver microsomes; assay type: in vitro ADME
Procedure: Next, we examined the buffer stability of the sulfopin sulfamate acetamides in PBS buffer (pH 8; 37 °C). Similar to the model compounds, the chloroacetamide (sulfopin) and sulfonate (4a) warheads show 30 and 15% hydrolysis after 2 days, respectively (Figure S26).
Figure S27: Sulfopin sulfamates show high metabolic stability: Compounds (Sulfopin, 4d, and 4g) were incubated
in liver microsomes and injected to LC/MS/MS at indicated time points. The peak intensities of the compounds were […]

T1 sequence (Q13526 52-163 limits assumed): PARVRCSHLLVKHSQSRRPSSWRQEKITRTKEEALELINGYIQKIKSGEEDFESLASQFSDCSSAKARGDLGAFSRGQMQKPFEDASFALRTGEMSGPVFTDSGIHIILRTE

CC(C)(C)CN(C(=O)COS(C)(=O)=O)C1CCS(=O)(=O)C1 (stereo not drawn) [4a]
hydrolysis (buffer stability, sulfopin analogues) (Buffer stability assay; 200 μM, PBS buffer pH 8, 37 °C for four days): 15% | hydrolysis (buffer stability, sulfopin analogues) (Buffer stability assay; PBS buffer pH 8, 37 °C, after 2 days): 15% | labeling of Pin1 (Pin1): 18%

Nc1ncnc2c1c(-c1ccc(Oc3ccccc3)cc1)nn2[C@@H]1CCCN(C(=O)COS(=O)(=O)Nc2ccccc2)C1 [3e]
IC50 (BTK [1]): 100 nM

CNS(=O)(=O)OCC(=O)N(CC(C)(C)C)C1CCS(=O)(=O)C1 (stereo not drawn) [4b]
labeling of Pin1 (Pin1): 16%

Nc1ncnc2c1c(-c1ccc(Oc3ccccc3)cc1)nn2[C@@H]1CCCN(C(=O)CCl)C1 [3a]
BTK inhibition (in words) (BTK [1]): potent BTK inhibition | less potency in cellular pBTK inhibition (BTK [2]): 20 fold

CS(=O)(=O)OCC(=O)N1CCC[C@@H](n2nc(-c3ccc(Oc4ccccc4)cc3)c3c(N)ncnc32)C1 [3b]
BTK inhibition (in words) (BTK [1]): potent BTK inhibition | IC50 (BTK [2]; anti-IgM activation, Western blot normalized to β-actin): 6 nM | labeling of BTK (BTK [3]; within 10 min): more than 95%

CNS(=O)(=O)OCC(=O)NCc1ccccc1 [1d]
reactivity towards GSH relative to chloroacetamide (1a) [4]: an order of magnitude less reactivity | reaction with glutamic acid [5]: did not react

O=C(COS(=O)(=O)NCc1ccccc1)NCc1ccccc1 [1e]
reactivity towards GSH relative to chloroacetamide (1a) [4]: an order of magnitude less reactivity | reaction with glutamic acid [5]: did not react

CS(=O)(=O)CC(=O)NCc1ccccc1 [1i]
covalent bond formation with GSH [4]: did not form a covalent bond with GSH

CC(C)(C)CN(C(=O)COS(=O)(=O)NCc1ccccc1)C1CCS(=O)(=O)C1 (stereo not drawn) [4c]
thiol reactivity compared to sulfopin [6]: lower thiol reactivity than sulfopin | labeling of Pin1 (Pin1): 56%

O=C(CS(=O)(=O)c1ccccc1)NCc1ccccc1 [1j]
covalent bond formation with GSH [4]: did not form a covalent bond with GSH

Nc1ncnc2c1c(-c1ccc(Oc3ccccc3)cc1)nn2[C@@H]1CCCN(C(=O)CS(=O)(=O)c2ccccc2)C1 [3g]
IC50 (BTK [1]): 500 nM | covalent reaction with BTK (BTK [3]): no labeling; also recorded: failed to react covalently with BTK

Cc1ccc(NS(=O)(=O)OCC(=O)N(CC(C)(C)C)C2CCS(=O)(=O)C2)cc1 (stereo not drawn) [4f]
labeling of Pin1 (Pin1): less than 30%

CS(=O)(=O)CC(=O)N1CCC[C@@H](n2nc(-c3ccc(Oc4ccccc4)cc3)c3c(N)ncnc32)C1 [3f]
covalent reaction with BTK (BTK [3]): no labeling; also recorded: failed to react covalently with BTK

CC(C)(C)CN(C(=O)COS(=O)(=O)Nc1ccc(Br)cc1)C1CCS(=O)(=O)C1 (stereo not drawn) [4e]
thiol reactivity compared to sulfopin [6]: lower thiol reactivity than sulfopin | labeling of Pin1 (Pin1): > 90%

O=C(COS(=O)(=O)Nc1ccccc1)N(CC1CCCCC1)C1CCS(=O)(=O)C1 (stereo not drawn) [4g]
thiol reactivity compared to sulfopin [6]: slightly higher reactivity | labeling of Pin1 (Pin1): > 95% | metabolic stability (in words) [7]: good metabolic stability
